Laboratory results as given in patent publication US11427548B2 (Arvinas Operations, Inc., priority 2015, dated 2022).
Where two headings read alike, the source gives them in different places.

Biological target: T1, Androgen Receptor (Homo sapiens, UniProt P10275)
T1 construct: endogenous in cells; host or cells: VCaP cells
T1 sequence (P10275 1-920): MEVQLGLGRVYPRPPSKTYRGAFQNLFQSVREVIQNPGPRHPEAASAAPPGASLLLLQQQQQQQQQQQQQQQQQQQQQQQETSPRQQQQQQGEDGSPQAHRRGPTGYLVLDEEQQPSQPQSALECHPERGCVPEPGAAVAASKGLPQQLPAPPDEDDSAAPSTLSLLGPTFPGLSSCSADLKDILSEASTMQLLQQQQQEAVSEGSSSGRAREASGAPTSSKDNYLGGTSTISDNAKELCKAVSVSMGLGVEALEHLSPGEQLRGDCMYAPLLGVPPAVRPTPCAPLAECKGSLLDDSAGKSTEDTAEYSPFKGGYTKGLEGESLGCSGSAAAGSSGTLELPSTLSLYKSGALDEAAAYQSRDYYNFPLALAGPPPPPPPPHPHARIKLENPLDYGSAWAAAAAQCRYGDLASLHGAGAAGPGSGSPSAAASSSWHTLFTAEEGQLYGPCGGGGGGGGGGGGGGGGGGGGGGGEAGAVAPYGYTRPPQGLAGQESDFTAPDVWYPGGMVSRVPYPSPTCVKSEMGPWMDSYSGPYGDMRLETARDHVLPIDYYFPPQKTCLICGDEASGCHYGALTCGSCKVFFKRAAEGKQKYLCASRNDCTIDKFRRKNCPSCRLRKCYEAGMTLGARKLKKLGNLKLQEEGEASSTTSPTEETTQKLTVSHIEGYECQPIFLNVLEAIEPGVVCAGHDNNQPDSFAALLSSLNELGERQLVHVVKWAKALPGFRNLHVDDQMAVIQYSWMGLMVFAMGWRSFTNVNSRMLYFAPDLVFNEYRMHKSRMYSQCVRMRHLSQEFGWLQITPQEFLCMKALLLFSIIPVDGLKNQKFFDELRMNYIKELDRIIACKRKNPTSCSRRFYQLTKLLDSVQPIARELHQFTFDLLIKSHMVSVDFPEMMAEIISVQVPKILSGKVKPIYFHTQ
Experiment: Androgen Receptor ELISA assay (PathScan AR ELISA) in VCaP cells: AR degradation, Dmax and DC50
Type: cell-based
In short: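 VCaP cells in phenol red-free RPMI with 5% charcoal-stripped FBS were grown at least 3 days, then given compound as 7 half-log doses in 0.1% DMSO with 0.1 nM R1881 for 24 h. Lysates went into a sandwich AR ELISA with TMB read at 450 nm.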

[1] = VCaP cells; Table 36; read-out: VCaP DC50
[2] = read-out: VCaP DC50; VCaP cells; Table 34
[3] = read-out: VCaP DC50; VCaP cells; Table 35
[4] = VCaP, VCaP cells; Table 36; read-out: VCaP Dmax (%)

| DC50 [1] | Structure (SMILES) | Dmax (VCaP, read-out: VCaP Dmax (%)) | further results |
| --- | --- | --- | --- |
| – | Cc1n[nH]cc1-c1ccc(CNC(=O)[C@@H]2C[C@@H](O)CN2C(=O)[C@@H](NC(=O)COCCCOCCCCOc2ccc(N3C(=S)N(c4ccc(C#N)c(C(F)(F)F)c4)C(=O)C3(C)C)cc2)C(C)(C)C)cc1 [Example 377] | 51 to 70% | DC50 [2]: 51 to 500 nM |
| – | Cc1ncsc1-c1ccc([C@H](C)NC(=O)[C@@H]2C[C@@H](O)CN2C(=O)[C@@H](C(C)C)n2cc(OCCCOCCCCCOc3ccc(N4C(=S)N(c5ccc(C#N)c(C(F)(F)F)c5)C(=O)C4(C)C)cc3)cn2)nc1 [Example 427] | < 25% | DC50 [3]: > 501 nM |
| > 501 nM | Cc1ncsc1-c1ccc([C@H](C)NC(=O)[C@@H]2C[C@@H](O)CN2C(=O)[C@@H](NC(=O)COCCCCCNc2ccc(C(=O)N[C@H]3C(C)(C)[C@H](Oc4ccc(C#N)c(Cl)c4)C3(C)C)nn2)C(C)(C)C)cc1 [Example 607, N-((1r,3r)-3-(3-chloro-4-cyanophenoxy)-2,2,4,4-tetramethylcyclobutyl)-6-((5-(2-(((S)-1-((2S,4R)-4-hydroxy-2-(((S)-1-(4-(4-methylthiazol-5-yl)phenyl)ethyl)carbam-oyl)pyrrolidin-1-yl)-3,3-dimethyl-1-oxobutan-2-yl)amino)-2-oxoethoxy)pentyl)amino) pyridazine-3-carboxamide] | – | Dmax (VCaP, read-out: VCaP Dmax (%), VCaP cells; Table 36): 26 to 50% |
| – | CC(C)(C)[C@H](NC(=O)COCCCOCCCCOc1ccc(N2C(=S)N(c3ccc(C#N)c(C(F)(F)F)c3)C(=O)C2(C)C)cc1)C(=O)N1C[C@H](O)C[C@H]1C(=O)NCc1ccc(-c2cncs2)cc1 [Example 33, (2S,4R)-1-[(2S)-2-(2-{3-[4-(4-{3-[4-cyano-3-(trifluoromethyl)phenyl]-5,5-dimethyl-4-oxo-2-sulfanylideneimidazolidin-1-yl}phenoxy)butoxy]propoxy}acetamido)-3,3-dimethylbutanoyl]-4-hydroxy-N-{[4-(1,3-thiazol-5-yl)phenyl]methyl}pyrrolidine-2-carboxamide] | 51 to 70% | DC50 (read-out: VCaP DC50; concentration that caused 50% Androgen Receptor degradation, VCaP cells): < 50 nM |
| > 501 nM | Cc1ncsc1-c1ccc([C@H](C)NC(=O)[C@@H]2C[C@@H](O)CN2C(=O)C(NC(=O)CO[C@@H]2CCCC[C@H]2N2CCN(CCOc3ccc(C(=O)N[C@H]4C(C)(C)[C@H](Oc5ccc(C#N)c(Cl)c5)C4(C)C)cc3)CC2)C(C)(C)C)cc1 (stereo partly drawn) [Example 792, (2S,4R)-1-((S)-2-(2-(((1R,2R)-2-(4-(2-(4-(((1r,3r)-3-(3-chloro-4-cyanophenoxy)-2,2,4,4-tetramethylcyclobutyl)carbamoyl)phenoxy)ethyl)piperazin-1-yl)cyclohexyl)oxy)acetamido)-3,3-dimethylbutanoyl)-4-hydroxy-N-((S)-1-(4-(4-methylthiazol-5-yl)phenyl)ethyl)pyrrolidine-2-carboxamide] | – | Dmax [4]: 26 to 50% |
| – | Cc1ncsc1-c1ccc(CNC(=O)[C@@H]2C[C@@H](O)CN2C(=O)[C@@H](NC(=O)COCCCCOc2ccc(-c3ccc(N4C(=S)N(c5ccc(C#N)c(C(F)(F)F)c5)C(=O)C4(C)C)cc3F)cc2)C(C)(C)C)cc1 [Example 400] | > 71% | DC50 [2]: < 50 nM |
| – | Cc1nccn1-c1ccc([C@H](C)NC(=O)[C@@H]2C[C@@H](O)CN2C(=O)C(C(C)C)n2cc(OCCCOCCCCCOc3ccc(N4C(=S)N(c5ccc(C#N)c(C(F)(F)F)c5)C(=O)C4(C)C)cc3)cn2)nc1 (mixture of isomers) [Example 423] | < 25% | DC50 [3]: > 501 nM |
| – | CC(C)(C)[C@H](NC(=O)COCCCCOc1ccc(-c2ccc(N3C(=S)N(c4ccc(C#N)c(Cl)c4)C(=O)C3(C)C)cc2)c(F)c1)C(=O)N1C[C@H](O)C[C@H]1C(=O)NCc1ccc(-c2cnco2)cc1 [Example 121, (2S,4R)-1-[(2S)-2-{2-[4-(4-{4-[3-(3-chloro-4-cyanophenyl)-5,5-dimethyl-4-oxo-2-sulfanylideneimidazolidin-1-yl]phenyl}-3-fluorophenoxy)butoxy]acetamido}-3,3-dimethylbutanoyl]-4-hydroxy-N-{[4-(1,3-oxazol-5-yl)phenyl]methyl}pyrrolidine-2-carboxamide] | > 71% | DC50 (read-out: VCaP DC50; concentration that caused 50% Androgen Receptor degradation, VCaP cells (Table 32)): < 50 nM |
| < 50 nM | C[C@H](NC(=O)C1C[C@@H](O)CN1C(=O)[C@@H](NC(=O)COCCCCCc1ccc(C(=O)N[C@H]2C(C)(C)[C@H](Oc3ccc(C#N)c(Cl)c3)C2(C)C)cc1)C(C)(C)C)c1ccc(Cl)cc1 (stereo partly drawn) [Example 740, (2S,4R)-1-((S)-2-(2-((5-(4-(((1r,3r)-3-(3-chloro-4-cyanophenoxy)-2,2,4,4-tetramethylcyclobutyl)carbamoyl)phenyl)pentyl)oxy)acetamido)-3,3-dimethylbutanoyl)-N-((S)-1-(4-chlorophenyl)ethyl)-4-hydroxypyrroldiine-2-carboxamide] | – | Dmax [4]: 51 to 70% |
| – | Cc1ncoc1-c1ccc(CNC(=O)[C@@H]2C[C@@H](O)CN2C(=O)[C@@H](NC(=O)COCCCOc2ccc(Oc3ccc(N4C(=S)N(c5cnc(C#N)c(C(F)(F)F)c5)C(=O)C4(C)C)cc3)cc2)C(C)(C)C)cc1 [Example 386] | – | DC50 (VCaP cells; Table 34; read-out: VCaP DC50): < 50 nM; Dmax (VCaP, VCaP cells; Table 34; read-out: VCaP Dmax (%)): > 71% |
| – | Cc1ncsc1-c1ccc([C@H](C)NC(=O)[C@@H]2C[C@@H](O)CN2C(=O)[C@@H](NC(=O)COC[C@H](O)[C@@H](O)COc2ccc(-c3ccc(N4C(=S)N(c5ccc(C#N)c(C(F)(F)F)c5)C(=O)C4(C)C)cc3)cc2)C(C)(C)C)cc1 [Example 559] | > 71% | DC50 [3]: < 50 nM |
| < 50 nM | Cc1ncsc1-c1ccc([C@H](C)NC(=O)C2C[C@@H](O)CN2C(=O)C(NC(=O)CN2CCN(CCCCc3ccc(C(=O)N[C@H]4C(C)(C)[C@H](Oc5ccc(C#N)c(C(F)(F)F)c5)C4(C)C)cc3)CC2)C(C)(C)C)cc1 (stereo partly drawn) [Example 723, (2S,4R)-1-((S)-2-(2-(4-(4-(4-(((1r,3r)-3-(4-cyano-3-(trifluoromethyl)phenoxy)-2,2,4,4-tetramethylcyclobutyl)carbamoyl)phenyl)butyl)piperazin-1-yl)actamido)-3,3-dimethylbutanoyl)-4-hydroxy-N-((S)-1-(4-(4-methylthiazol-5-yl)phenyl)ethyl)pyrrolidine-2-carboxamide] | – | Dmax [4]: > 71% |
| – | Cc1ncsc1-c1ccc([C@H](C)NC(=O)C2C[C@@H](O)CN2C(=O)C(NC(=O)CN2C3CCC2CN(CCCCc2ccc(C(=O)N[C@H]4C(C)(C)[C@H](Oc5ccc(C#N)c(Cl)c5)C4(C)C)cc2)C3)C(C)(C)C)cc1 (stereo partly drawn) [Example 835, (2S,4R)-1-((2S)-2-(2-(3-(4-(4-(((1r,3r)-3-(3-chloro-4-cyanophenoxy)-2,2,4,4-tetramethylcyclobutyl)carbamoyl)phenyl)butyl)-3,8-diazabicyclo[3.2.1]octan-8-yl)acetamido)-3,3-dimethylbutanoyl)-4-hydroxy-N-((S)-1-(4-(4-methylthiazol-5-yl)phenyl)ethyl) pyrrolidine-2-carboxamide] | > 71% | DC50 (read-out: VCaP DC50; VCaP cells; Table 36): < 50 nM |

| Structure (SMILES) | DC50 [1] | Dmax (VCaP, read-out: VCaP Dmax (%)) | further results |
| --- | --- | --- | --- |
| Cc1ncsc1-c1ccc([C@H](C)NC(=O)[C@@H]2C[C@@H](O)CN2C(=O)[C@@H](NC(=O)CN2C3CCC2CN(CCCc2ccc(C(=O)NC4C(C)(C)C(Oc5ccc(C#N)c(Cl)c5)C4(C)C)cc2)C3)C(C)(C)C)cc1 (stereo partly drawn) [Example 802, (2S,4R)-1-((2S)-2-(2-(3-(3-(4-(((1r,3r)-3-(3-chloro-4-cyanophenoxy)-2,2,4,4-tetramethylcyclobutyl)carbamoyl)phenyl)propyl)-3,8-diazabicyclo[3.2.1]octan-8-yl)acetamido)-3,3-dimethylbutanoyl)-4-hydroxy-N-((S)-1-(4-(4-methylthiazol-5-yl)phenyl)ethyl)pyrrolidine-2-carboxamide] | < 50 nM | – | VCaP Dmax (%) (VCaP cells; Table 36): +++ (51% ≤ Dmax ≤ 70%) |
| Cc1ncsc1-c1ccc([C@H](C)NC(=O)[C@@H]2C[C@@H](O)CN2C(=O)[C@@H](NC(=O)CN2CCN(CCCc3ccc(C(=O)N[C@H]4C(C)(C)[C@H](Oc5ccc(C#N)c(Cl)c5)C4(C)C)cc3)[C@@H](CO)C2)C(C)(C)C)cc1 [Example 823, (2S,4R)-1-((S)-2-(2-((R)-4-(3-(4-(((1r,3R)-3-(3-chloro-4-cyanophenoxy)-2,2,4,4-tetramethylcyclobutyl)carbamoyl)phenyl)propyl)-3-(hydroxymethyl)piperazin-1-yl)acetamido)-3,3-dimethylbutanoyl)-4-hydroxy-N-((S)-1-(4-(4-methylthiazol-5-yl)phenyl)ethyl) pyrrolidine-2-carboxamide] | < 50 nM | > 71% | – |
